The values below come from ChEMBL document CHEMBL1135394, “Improvement in the selectivity and metabolic stability of the serotonin 5-HT(1A) ligand, S 15535: a series of cis- and trans-2-(arylcycloalkylamine) 1-indanols” (J Med Chem, 2002).

The target of series [1] is T1, 5-hydroxytryptamine receptor 1A (Rattus norvegicus) (UniProt P19327).
T1 sequence (whole entry): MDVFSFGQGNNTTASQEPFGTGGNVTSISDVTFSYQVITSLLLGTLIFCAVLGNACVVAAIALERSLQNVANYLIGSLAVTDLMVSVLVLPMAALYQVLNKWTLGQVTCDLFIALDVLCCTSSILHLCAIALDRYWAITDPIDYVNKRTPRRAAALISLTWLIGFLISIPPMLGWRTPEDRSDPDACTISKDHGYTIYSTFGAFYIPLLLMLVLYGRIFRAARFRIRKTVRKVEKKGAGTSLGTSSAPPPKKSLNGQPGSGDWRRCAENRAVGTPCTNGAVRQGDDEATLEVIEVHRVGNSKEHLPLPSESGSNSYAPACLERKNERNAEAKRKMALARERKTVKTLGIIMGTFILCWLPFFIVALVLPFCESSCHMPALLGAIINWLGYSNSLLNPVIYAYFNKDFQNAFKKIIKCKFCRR
Put plainly: Antagonistic activity at postsynaptic 5-hydroxytryptamine 1A receptor was measured by its ability to inhibit hypothermia elicited by s.c. administration of 8-OH-DPAT in rat;ranges from (0.72-2.87). The class given is functional, organism-based.

Series [2] has as its target T2, 5-hydroxytryptamine receptor 1A (Homo sapiens, UniProt P08908).
T2 sequence (P08908 whole entry): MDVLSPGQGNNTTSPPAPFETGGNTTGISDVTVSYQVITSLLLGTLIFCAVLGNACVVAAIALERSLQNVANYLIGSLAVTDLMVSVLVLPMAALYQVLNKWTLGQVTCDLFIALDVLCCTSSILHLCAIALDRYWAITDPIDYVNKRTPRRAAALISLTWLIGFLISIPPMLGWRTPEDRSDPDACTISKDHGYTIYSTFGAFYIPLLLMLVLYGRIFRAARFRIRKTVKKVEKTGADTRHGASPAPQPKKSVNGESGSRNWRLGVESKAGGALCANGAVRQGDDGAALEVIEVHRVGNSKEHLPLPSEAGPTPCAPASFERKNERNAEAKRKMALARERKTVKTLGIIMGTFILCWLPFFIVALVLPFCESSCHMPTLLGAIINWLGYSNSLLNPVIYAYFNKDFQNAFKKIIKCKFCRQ
Put plainly: Binding affinity at human 5-hydroxytryptamine 1A receptor by inhibition of [3H]8-OH-DPAT binding in Chinese hamster ovary cell line. The class given is cell-based.

The target in series [3] is T3, Adrenergic receptor alpha-1 (Rattus norvegicus, UniProt P15823+P23944+P43140).
T3 sequence (P15823 whole entry): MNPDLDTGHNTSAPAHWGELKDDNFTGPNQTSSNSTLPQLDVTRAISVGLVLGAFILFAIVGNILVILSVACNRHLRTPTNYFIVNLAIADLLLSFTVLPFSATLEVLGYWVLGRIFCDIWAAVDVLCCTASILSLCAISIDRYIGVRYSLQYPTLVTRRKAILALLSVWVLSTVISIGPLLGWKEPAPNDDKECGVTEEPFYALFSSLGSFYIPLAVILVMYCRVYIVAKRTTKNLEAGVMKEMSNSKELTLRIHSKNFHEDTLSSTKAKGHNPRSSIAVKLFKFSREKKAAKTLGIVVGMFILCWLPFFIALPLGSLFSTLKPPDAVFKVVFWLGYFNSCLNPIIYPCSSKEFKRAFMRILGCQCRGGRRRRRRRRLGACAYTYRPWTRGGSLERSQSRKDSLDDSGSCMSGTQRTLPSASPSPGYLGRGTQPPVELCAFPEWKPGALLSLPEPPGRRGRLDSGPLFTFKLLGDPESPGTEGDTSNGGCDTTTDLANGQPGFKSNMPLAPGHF
T3 sequence (P23944 whole entry): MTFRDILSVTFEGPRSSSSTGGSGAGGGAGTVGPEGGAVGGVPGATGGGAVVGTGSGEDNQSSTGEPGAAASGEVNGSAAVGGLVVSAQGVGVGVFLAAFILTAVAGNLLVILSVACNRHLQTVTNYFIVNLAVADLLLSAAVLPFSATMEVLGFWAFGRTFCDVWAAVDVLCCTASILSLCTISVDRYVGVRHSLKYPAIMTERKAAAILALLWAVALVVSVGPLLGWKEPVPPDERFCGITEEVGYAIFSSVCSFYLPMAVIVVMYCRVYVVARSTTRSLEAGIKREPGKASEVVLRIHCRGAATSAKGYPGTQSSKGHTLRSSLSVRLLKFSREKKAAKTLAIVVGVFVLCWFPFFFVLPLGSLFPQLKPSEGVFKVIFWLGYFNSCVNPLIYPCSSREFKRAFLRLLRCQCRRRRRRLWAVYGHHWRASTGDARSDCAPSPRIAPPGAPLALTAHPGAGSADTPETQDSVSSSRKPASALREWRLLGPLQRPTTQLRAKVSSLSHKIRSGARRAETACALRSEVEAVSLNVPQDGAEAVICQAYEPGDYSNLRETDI
T3 sequence (P43140 whole entry): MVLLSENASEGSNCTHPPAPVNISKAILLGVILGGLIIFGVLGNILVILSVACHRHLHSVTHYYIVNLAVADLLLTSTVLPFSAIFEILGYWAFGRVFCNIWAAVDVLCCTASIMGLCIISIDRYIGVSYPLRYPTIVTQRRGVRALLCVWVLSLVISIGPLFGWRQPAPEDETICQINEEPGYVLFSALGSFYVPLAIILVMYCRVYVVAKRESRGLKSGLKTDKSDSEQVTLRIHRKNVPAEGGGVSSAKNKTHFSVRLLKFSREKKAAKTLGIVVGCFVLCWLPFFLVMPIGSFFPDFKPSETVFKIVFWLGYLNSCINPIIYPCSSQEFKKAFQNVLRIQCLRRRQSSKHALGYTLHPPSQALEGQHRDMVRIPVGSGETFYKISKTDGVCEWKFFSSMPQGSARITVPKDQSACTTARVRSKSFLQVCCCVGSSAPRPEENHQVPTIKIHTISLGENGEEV
Put plainly: Binding affinity at Alpha-1 adrenergic receptor by inhibition of [3H]-prazosin binding to rat cortex.

The nature of series [4]: Selectivity ratio towards Alpha-1 adrenergic receptor to human 5-hydroxytryptamine 1A receptor.
Series [5] can be described thus: In vitro oral metabolic bioavailability after incubation with hepatic microsomes. In kind it is ADME, Liver. Conditions: read-out: MF.
In series [6] the target is T4, 5-hydroxytryptamine receptor 1A (Homo sapiens) (UniProt P08908).
T4 sequence (whole entry): T2 sequence (P08908 whole entry)
Nature of the series: Agonist efficacy of [35S]GTP-gamma-S, binding to 5-hydroxytryptamine 1A receptor compared with 5-HT. In kind it is functional.

The target of series [7] is T1, 5-hydroxytryptamine receptor 1A (Rattus norvegicus).
Series [8] has the same target. Put plainly: Antagonistic activity at postsynaptic 5-hydroxytryptamine 1A receptor was measured by its ability to inhibit hypothermia elicited by s.c. administration of 8-OH-DPAT in rat;ranges from (0.45-4.51). The class given is functional, organism-based.
For series [9] the target is unchanged. Put plainly: Antagonistic activity at postsynaptic 5-hydroxytryptamine 1A receptor was measured by its ability to inhibit hypothermia elicited by s.c. administration of 8-OH-DPAT in rat;ranges from (0.10-6.20). In kind it is functional, organism-based.
Series [10] shares this target. Put plainly: Antagonistic activity at postsynaptic 5-hydroxytryptamine 1A receptor was measured by its ability to inhibit hypothermia elicited by s.c. administration of 8-OH-DPAT in rat;ranges from (0.20-1.80). The class given is functional, organism-based.
For series [11] the target is unchanged. Put plainly: Antagonistic activity at postsynaptic 5-HT1A receptor was measured by its ability to inhibit hypothermia elicited by s.c. administration of 8-OH-DPAT in rat;ranges from (.26-3.52). The class given is functional, organism-based.
Series [12] has the same target. Put plainly: Antagonistic activity at postsynaptic 5-hydroxytryptamine 1A receptor was measured by its ability to inhibit hypothermia elicited by s.c. administration of 8-OH-DPAT in rat;ranges from (0.50-5.30). In kind it is functional, organism-based.
Series [13] has the same target. Put plainly: Antagonistic activity at postsynaptic 5-hydroxytryptamine 1A receptor was measured by its ability to inhibit hypothermia elicited by s.c. administration of 8-OH-DPAT in rat;ranges from (2.20-30.5). In kind it is functional, organism-based.
Series [14] shares this target. Nature of the series: Antagonistic activity at postsynaptic 5-hydroxytryptamine 1A receptor was measured by its ability to inhibit hypothermia elicited by s.c. administration of 8-OH-DPAT in rat;ranges from (0.60-1.60). The class given is functional, organism-based.
Series [15] shares this target. Put plainly: Antagonistic activity at postsynaptic 5-hydroxytryptamine 1A receptor was measured by its ability to inhibit hypothermia elicited by s.c. administration of 8-OH-DPAT in rat;ranges from (0.40-4). The class given is functional, organism-based.
Series [16] has the same target. Nature of the series: Antagonistic activity at postsynaptic 5-hydroxytryptamine 1A receptor was measured by its ability to inhibit hypothermia elicited by s.c. administration of 8-OH-DPAT in rat;ranges from (0.20-1.60). In kind it is functional, organism-based.
Series [17] shares this target. Nature of the series: Antagonistic activity at postsynaptic 5-hydroxytryptamine 1A receptor was measured by its ability to inhibit hypothermia elicited by s.c. administration of 8-OH-DPAT in rat;ranges is not computable. The class given is functional, organism-based.

pKi: −log10 of the molar value.

The pKi is the negative decadic logarithm of the Ki, by convention in mol/L. A lower pKi goes with a large Ki.

With `c1ccc2c(c1)CC(N1CCN(c3cccc4c3OCCO4)CC1)C2`, in [1], the ID50 came to 1.44 mg/kg. This molecule also had a pKi in series [2] of 9.10. In series [3], the “Log Ki” value is given as -6.9. Also, the Ratio in [4] worked out at 158. Also, in [5], the Fh was 4%.
Consider `COc1ccc2c(c1)C[C@@H](N1CCN(c3cccc4c3OCCO4)CC1)[C@@H]2O` (racemic), for which the Efficacy in series [6] was found to be 21%. For the same molecule, the Ratio in series [4] amounted to 224. The molecule further returned an ID50 in series [7] of 0.72 mg/kg.
In turn, `O[C@@H]1c2ccc(F)cc2C[C@H]1N1CCN(c2cccc3c2OCCO3)CC1` (racemic) returned an ID50 in series [8] of 1.42 mg/kg. Besides, the Ratio in series [4] is 562.
In turn, `O=[N+]([O-])c1ccc2c(c1)[C@@H](O)[C@H](N1CCN(c3cccc4c3OCCO4)CC1)C2` (relative stereo) came in with an ID50 in [9] of 0.9 mg/kg. Moreover, the pKi in series [2] is 9.13. Further, the “Log Ki” value in series [3] was -6.03. Further, in series [4], the Ratio amounted to 1260. The Fh in series [5] turned out to be 71%.
The molecule `COc1ccc2c(c1)[C@@H](O)[C@H](N1CCC(c3cccc4c3OCCO4)CC1)C2` (relative stereo) displayed an ID50 in series [10] of 0.6 mg/kg. Further, the negative logarithm of the Ki (pKi) in [2] was 8.96. Moreover, the “Log Ki” value in series [3] is -7.22. Further, the Ratio in [4] was determined as 55.
`O[C@@H]1c2ccccc2C[C@H]1N1CCN(c2cccc3c2OCCO3)CC1` (relative stereo) gave an ID50 in [11] of 0.96 mg/kg. Moreover, the Efficacy in series [6] is 52%. This molecule had a pKi in series [2] of 8.79. In addition, the “Log Ki” value in series [3] was -6.03. In addition, the Ratio in series [4] stood at 575. In series [5], the Fh is 21%.
In [12], `O[C@@H]1c2ccc(F)cc2C[C@H]1N1CC=C(c2cccc3c2OCCO3)CC1` (relative stereo) came in with an ID50 of 1.7 mg/kg. This molecule had a pKi in series [2] of 9.07. For the same molecule, the “Log Ki” value in series [3] is -6.96. The Ratio in series [4] is 128. Further, in series [5], the Fh worked out at 8%.
Molecule `O=[N+]([O-])c1ccc2c(c1)[C@@H](O)[C@H](N1CCC(c3cccc4c3OCCO4)CC1)C2` (relative stereo) came in with an ID50 in series [13] of 8.1 mg/kg. In series [2], this molecule showed a negative-log Ki (pKi) of 9.54. In [3], the “Log Ki” value is given as -6.95. In addition, the Ratio in [4] was determined as 389. The Fh in series [5] turned out to be 22%.
In turn, `O[C@@H]1c2cc3c(cc2C[C@H]1N1CCC(c2cccc4c2OCCO4)CC1)OCO3` (relative stereo) returned an ID50 in [14] of 1 mg/kg. In addition, in [2], the pKi was 9.28. Moreover, the “Log Ki” value in [3] is on record as -7.53. Also, the Ratio in series [4] was found to be 56. For the same molecule, in series [5], the Fh was found to be 8%.
The molecule `O[C@@H]1c2ccccc2C[C@H]1N1CC=C(c2cccc3c2OCCO3)CC1` (relative stereo) returned an ID50 in series [15] of 1.3 mg/kg. In series [2], the pKi was 9.08. Moreover, the “Log Ki” value in series [3] is listed as -7. For the same molecule, the Ratio in series [4] worked out at 120. Besides, in series [5], the Fh was found to be 4%.
Consider `O[C@@H]1c2ccccc2C[C@H]1N1CCC(c2cccc3c2OCCO3)CC1` (relative stereo), for which the ID50 in [16] came to 0.5 mg/kg. In addition, the pKi in series [2] is 9.15. The “Log Ki” value in series [3] is -7.1. Further, the Ratio in [4] came to 112. Also, in [5], the Fh worked out at 7%.
The molecule `O[C@@H]1c2cc(F)c(F)cc2C[C@H]1N1CCN(c2cccc3c2OCCO3)CC1` (relative stereo) gave an ID50 in [17] of 2.5 mg/kg. For the same molecule, in series [2], the pKi is 8.67. Moreover, the “Log Ki” value in [3] is on record as -6.15. The Ratio in [4] turned out to be 332. The Fh in series [5] turned out to be 51%.
